Patent publication US20100234348A1, “COMPOSITIONS AND METHODS FOR POTENTIATING ANTIBIOTIC ACTIVITY” (TRUSTEES OF BOSTON UNIVERSITY, priority 2006, published 2010)
Converted amounts (≈) assume the structure as drawn.

System: quinolone resistant strain laboratory S7
Assay: Growth of quinolone resistant strain S7 with ciprofloxacin and CB101 forms
Type: cell-based
Settings: Staphylococcus
Method: The quinolone resistant strain laboratory S7 was tested for growth in the presence of ciprofloxacin at 0.5 μg/mL (MIC at 1 μg/mL) with 20 μg/mL of CB101 (racemic mixture), the (+) enantiomeric form of CB101 or the (−) enantiomeric form of CB101.

Structure (SMILES): O=C(O)c1cn(C2CC2)c2cc(N3CCNCC3)c(F)cc2c1=O [ciprofloxacin]
- MIC: 1 µg/mL (≈ 3.02 µM)
